Experimental data taken from patent US20230042936A1, “PYRIDO[2,3-d]PYRIMIDIN-7(8H)-ONES AS CDK INHIBITORS” (PROSENESTAR LLC, priority 2020, published 2023).
In brackets after ≈: the same amount, converted by molar mass. Read-outs that look alike come from different tables or passages of the source.

Columns and labels:
[1] = not told
Cdk4/6_KO MEFs = assay: Cell growth in Cdk-deficient MEFs; type: cell-based, mouse; settings: relative cell count day 6 versus day 3; FIG. 4
Experimental: (§1) Cdk-deficient MEFs were plated in 10-cm dish in triplicate (100,000/well) and treated with the selected compounds at the indicated concentration, based on GI50 previously determined in the MDA-MB-231 cell line. Cells were counted in an optical microscope 3 and 6 days after treatment to estimate the relative cell growth in each condition.
(§2) To further investigate the relative functional dependence of the subject compounds on CDK2 versus CDK4 or CDK6, the specific effects of PS004, PS006 and PS009 were tested on CDK-deficient mouse embryonic fibroblasts (MEFs) obtained from Cdk2 knock out, Cdk4; Cdk6-double knock out and Cdk2; Cdk4; Cdk6-triple knock out mouse models.

Cdk2/4/6_KO MEFs = assay: Cell growth in Cdk-deficient MEFs; type: cell-based, mouse; settings: relative cell count day 6 versus day 3; FIG. 4
Experimental: as §1, §2

DYRK2 = target: T1, DYRK2 (Homo sapiens, UniProt Q92630); assay: Kinase profiling; type: biochemical; settings: 10 semi-logarithmic dilutions from 50 μM, singlicate; read-out: IC50 DYRK2
T1 sequence (Q92630 1-601): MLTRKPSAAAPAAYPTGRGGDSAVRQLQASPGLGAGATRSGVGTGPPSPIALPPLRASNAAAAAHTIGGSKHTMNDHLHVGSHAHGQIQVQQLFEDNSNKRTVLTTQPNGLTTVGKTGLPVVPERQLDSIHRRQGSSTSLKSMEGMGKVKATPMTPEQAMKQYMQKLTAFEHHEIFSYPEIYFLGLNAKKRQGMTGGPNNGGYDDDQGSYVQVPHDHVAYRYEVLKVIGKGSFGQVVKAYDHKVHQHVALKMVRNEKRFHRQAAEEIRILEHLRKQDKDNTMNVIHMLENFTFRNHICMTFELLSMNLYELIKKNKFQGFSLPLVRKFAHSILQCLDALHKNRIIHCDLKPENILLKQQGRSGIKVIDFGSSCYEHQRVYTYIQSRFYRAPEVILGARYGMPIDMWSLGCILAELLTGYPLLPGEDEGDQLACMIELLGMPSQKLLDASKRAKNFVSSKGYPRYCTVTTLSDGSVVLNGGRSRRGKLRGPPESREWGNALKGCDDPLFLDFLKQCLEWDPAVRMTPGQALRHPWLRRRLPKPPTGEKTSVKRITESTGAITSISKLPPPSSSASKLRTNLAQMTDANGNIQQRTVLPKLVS

[2] = test system: MDA-MB-468 breast carcinoma cell line (pRB mutant); assay: Proliferation assay: determination of GI50; type: cell-based; settings: Homo sapiens, Table 4, n = 2, read-out: Growth inhibition GI50, Breast cancer pRB Mutant MDA-MB-468
Experimental: (§3) The following human tumor cell lines, all Retinoblastoma (Rb)-proficient, were used in this study: MDA-MB231 (breast cancer), MDA-MB453 (breast cancer), U87MG (glioblastoma) and H460 (lung cancer). MDA-MB468 (breast cancer) and SW1783 (glioblastoma) Rb-deficient cells were also included in the study, as well as the MCF10A non-transformed mammary epithelial cell line. Tumor cell lines were maintained in DMEM or RPMI-1640 medium, depending on the cell line, supplemented with 10% FBS. MCF10A cells were grown in complete mammary epithelial growth medium (MEGM, Lonza). Cell lines were authenticated by short tandem repeat (STR) loci profiling with the GenePrint® 10 System (Promega).
(§4) All human cancer cell lines (Table 2) were obtained from the American Type Culture Collection, and were maintained in DMEM (Hyclone) or RPMI-1640 medium (Sigma) supplemented with 10% fetal bovine serum (Sigma). Non-transformed MCF10 cell line was maintained in MEGM Mammary Epithelial Cell Growth Medium (Lonza). Immortalized mouse embryonic fibroblasts (MEFs) were maintained in DMEM with 10% fetal bovine serum.
(§5) 48 h later cells were fixed with PFA 4% for 15 minutes, stained with 10 μg/ml Hoechst 33342 (Molecular Probes, Thermo Fisher) for 30 minutes and washed twice with PBS. Cells were imaged in a high content screening system (Opera Phoenix™, Perkin Elmer) using a 20× dry objective (30 fields/well). Cell counts were determined by the Opera software (Perkin Elmer) and data were further processed with SPSS software. GI50 was calculated by estimating the absolute IC50 using dose-response inhibition tool in Prism6 (Graphpad Software Inc.).

[3] = test system: SW1783 glioblastoma cell line (pRB mutant); assay: Proliferation assay: determination of GI50; type: cell-based; settings: Homo sapiens, Table 4, n = 4, read-out: Growth inhibition GI50, Glioblastoma pRB Mutant SW1783
Experimental: as §3, §4, §5

[4] = Metabolic stability in microsomes; type: in vitro ADME; settings: mouse, 60-90 min test
[5] = test system: MDA-MB-231 breast carcinoma cell line; assay: Proliferation assay: determination of GI50; type: cell-based, human; settings: Homo sapiens, MDA-MB-231
Experimental: as §3, §4, §5

[6] = test system: H460 lung carcinoma cell line; assay: Proliferation assay: determination of GI50; type: cell-based, human; settings: Homo sapiens, NCI-H460; Table 3; 48 h; n = 2 independent experiments
Experimental: as §3, §4, §5

[7] = test system: MCF10 non-transformed mammary epithelial cell line; assay: Proliferation assay: determination of GI50; type: cell-based, human; settings: Homo sapiens, MCF10; Table 3; 48 h; n = 2 independent experiments
Experimental: as §3, §4, §5

[8] = test system: U87MG glioblastoma cell line; assay: Proliferation assay: determination of GI50; type: cell-based, human; settings: Homo sapiens, U-87 MG
Experimental: as §3, §4, §5

CDK19/CycC = CDK19/CycC (Homo sapiens, UniProt Q9BWU1); assay: Kinase profiling; type: biochemical; settings: 10 semi-logarithmic dilutions from 50 μM, singlicate
[9] = Metabolic stability in microsomes; type: in vitro ADME; settings: human, 60-90 min test
[10] = Kinetic solubility (pH 7.4); type: physicochemical; settings: pH 7.4, aqueous buffer, kinetic from dmso stock
[11] = Metabolic stability in hepatocytes; type: in vitro ADME; settings: mouse, 60-90 min test
[12] = Thermodynamic solubility (pH 7.4); type: physicochemical; settings: pH 7.4, aqueous buffer, thermodynamic from solid
[13] = Metabolic stability in hepatocytes; type: in vitro ADME; settings: human, 60-90 min test
Caco-2 cells = assay: Permeability Caco-2 cells; type: in vitro ADME
[14] = Permeability Caco-2 cells; type: in vitro ADME; settings: human, Caco-2

Chain of CDK19/CycC (Q9BWU1 whole entry): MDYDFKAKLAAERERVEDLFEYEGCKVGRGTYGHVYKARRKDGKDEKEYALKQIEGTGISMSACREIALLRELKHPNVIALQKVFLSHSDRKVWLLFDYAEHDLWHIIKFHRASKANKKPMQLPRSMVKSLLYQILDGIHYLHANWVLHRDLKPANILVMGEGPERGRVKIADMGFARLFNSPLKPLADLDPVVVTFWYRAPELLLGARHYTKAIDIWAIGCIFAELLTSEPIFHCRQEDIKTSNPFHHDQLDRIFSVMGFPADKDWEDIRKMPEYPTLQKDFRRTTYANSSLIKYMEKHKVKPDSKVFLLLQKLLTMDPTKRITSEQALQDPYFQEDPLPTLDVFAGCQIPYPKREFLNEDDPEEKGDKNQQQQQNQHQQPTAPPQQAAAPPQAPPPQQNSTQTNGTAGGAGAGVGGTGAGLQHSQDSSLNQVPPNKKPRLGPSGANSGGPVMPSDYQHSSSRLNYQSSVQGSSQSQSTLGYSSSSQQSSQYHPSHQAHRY
Chain of CDK19/CycC (P24863 whole entry partner): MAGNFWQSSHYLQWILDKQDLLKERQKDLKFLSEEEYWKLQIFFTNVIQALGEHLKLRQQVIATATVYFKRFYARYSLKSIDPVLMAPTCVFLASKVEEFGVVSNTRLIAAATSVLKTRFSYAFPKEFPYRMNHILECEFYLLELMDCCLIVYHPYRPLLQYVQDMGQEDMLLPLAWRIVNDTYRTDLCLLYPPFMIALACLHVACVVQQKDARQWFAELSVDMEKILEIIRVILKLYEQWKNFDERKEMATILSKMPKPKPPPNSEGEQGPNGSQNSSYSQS

In the case of `CC(=O)c1c(C)c2cnc(Nc3ccc(N4CCNCC4)cn3)nc2n(C2CCCC2)c1=O` [Palbociclib, reference compound], the “Summary: permeability” value [1] is reported as “Low”, the “cell proliferation of Cdk4; Cdk6-double knock out MEFs” value (Cdk4/6_KO MEFs) is reported as “did not show activity” and the “cell proliferation of Cdk2; Cdk4; Cdk6-triple knock out MEFs” value (Cdk2/4/6_KO MEFs) is reported as “did not show activity”. The IC50 (DYRK2) was 6.91 µM, the GI50 [2] was 9.5 µM and the GI50 [3] was 19.9 µM. The microsomal CLint ([4]; read-out: Metabolic stability, Mouse microsomes: Clearance) was 18.3 µL/min/mg, the half-life ([4]; read-out: Metabolic stability, Mouse microsomes: t1/2) was 1.26 h and the GI50 ([5]; Table 3, 48 h, n = 3 independent experiments, read-out: GI50 MDA-MB231) was 0.74 µM. The GI50 ([5]; Table 4, n = 4, read-out: Growth inhibition GI50, Breast cancer pRB Wild-Type MDA-MB-231) was 1.7 µM, the GI50 [6] was 1.32 µM and the GI50 [7] was 0.47 µM. It also gave a GI50 ([8]; Table 3, 48 h, n = 3 independent experiments, read-out: GI50 U87MG) of 0.43 µM, a GI50 ([8]; Table 4, n = 4, read-out: Growth inhibition GI50, Glioblastoma pRB Wild-Type U87MG) of 5.7 µM and an IC50 (CDK19/CycC) of 11.8 µM. It also gave a microsomal CLint ([9]; read-out: Metabolic stability, Human microsomes: Clearance) of 23.6 µL/min/mg, a half-life ([9]; read-out: Metabolic stability, Human microsomes: t1/2) of 0.98 h and a solubility kinetic [10] of 19.9 µM (≈ 8.92 µg/mL). For the same compound, the hepatocyte CLint ([11]; read-out: Metabolic stability, Mouse heptocytes: Clearance) was 14.4 µL/min/1e6 cells, the half-life ([11]; read-out: Metabolic stability, Mouse heptocytes: t1/2) was 1.61 h and the solubility thermodynamic [12] was 2.32 µM (≈ 1.04 µg/mL). The hepatocyte CLint ([13]; read-out: Metabolic stability, Human hepatocytes: Clearance) was less than 6.4 µL/min/1e6 cells, the half-life ([13]; read-out: Metabolic stability, Human hepatocytes: t1/2) was greater than 3.61 h and the “Permeability Caco-2 cells: Permeability, grade in words” value (Caco-2 cells) was “(low)”. It also gave a Papp [14] of 0.4 ×10⁻⁶ cm/s.
